# Laboratory results from US12331054B2, “Perk inhibiting imidazolopyrazine compounds” (HiberCell, Inc., priority 2019, dated 2025).
# pIC50: −log10 of the molar value.
# Tests used:
# [1] = molecular target: Recombinant human EIF2AK3 (PERK) catalytic domain (amino acids 536-1116) (Homo sapiens (Human), UniProt Q9NZJ5); experiment: PERK In Vitro Activity Assay (isolated), TR-FRET kinase assay; conditions: isolated PERK enzyme, 1.5 μM ATP, read-out: Biochemical IC50
# Method in brief: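 Recombinant PERK catalytic domain was incubated with 100–200 nM GFP-eIF2a substrate in 50 mM HEPES pH 7.5, 10 mM MgCl2, 1.0 mM EGTA and 0.01% Brij-35 for 45 min at room temperature. After a 10 mM EDTA stop, 2 nM Tb-anti-phospho-eIF2a was added for 90 min, and IC50 was fitted from TR-FRET ratios by 4-parameter logistic regression.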
# [2] = tested on: eIF2α in HEK293-EGFP-eIF2α cells; experiment: PERK Cellular Assay (HEK293-EGFP-eIF2α cells, tunicamycin-induced ER stress, TR-FRET); format: cell-based; conditions: tunicamycin 2 hours
# Method in brief: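 Cells pre-incubated with inhibitor 30 min at 37 °C, then ER stress induced with […] tunicamycin for 2 h. TR-FRET read on lysates; ratio normalized to DMSO control as percent inhibition over a 10-point, 3-fold dilution series; IC50 from 4-parameter logistic fit.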
# Sequence of Recombinant human EIF2AK3 (PERK) catalytic domain (amino acids 536-1116) (Q9NZJ5 536-1116): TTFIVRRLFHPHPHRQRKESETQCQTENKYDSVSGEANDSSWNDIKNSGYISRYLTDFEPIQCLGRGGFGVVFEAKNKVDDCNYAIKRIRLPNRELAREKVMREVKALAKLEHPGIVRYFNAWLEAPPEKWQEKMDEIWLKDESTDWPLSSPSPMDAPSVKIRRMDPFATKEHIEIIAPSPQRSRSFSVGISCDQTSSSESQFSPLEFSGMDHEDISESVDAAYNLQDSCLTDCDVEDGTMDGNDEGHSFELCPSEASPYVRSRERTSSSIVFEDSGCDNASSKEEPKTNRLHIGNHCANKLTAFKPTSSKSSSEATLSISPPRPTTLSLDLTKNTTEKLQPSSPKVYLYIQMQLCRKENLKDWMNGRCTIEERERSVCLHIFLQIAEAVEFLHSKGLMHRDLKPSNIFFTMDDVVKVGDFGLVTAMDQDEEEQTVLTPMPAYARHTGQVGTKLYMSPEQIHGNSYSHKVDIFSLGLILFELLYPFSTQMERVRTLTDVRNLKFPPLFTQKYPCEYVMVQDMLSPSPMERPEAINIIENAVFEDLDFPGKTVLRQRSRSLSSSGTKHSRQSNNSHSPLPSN
smiles,measurement,setting,value
"Cc1cnc(N)c2c(-c3ccc(NC(=O)C(O)c4cccc(F)c4)cc3)nc(C)n12 (stereo not drawn) [Example 68, N-(4-(8-amino-3,5-dimethylimidazo [1,5-a]pyrazin-1-yl)phenyl)-2-(3-fluorophenyl)-2-hydroxyacetamide]",pIC50,[1],7.60 to 9.00
same,pIC50,[2],6.60 to 7.00
"Cc1cnc(N)c2c(-c3ccc(NC(=O)C(O)c4cccc(F)c4)cc3)nc(C)n12 (stereo not drawn) [Example 69, N-(4-(8-amino-3,5-dimethylimidazo [1,5-a]pyrazin-1-yl)phenyl)-2-(3-fluorophenyl)-2-hydroxyacetamide]",pIC50,[1],7.60 to 9.00
same,pIC50,[2],7.60 to 9.00
"Cc1cnc(N)c2c(-c3ccc(NC(=O)C(O)c4cccc(F)c4)cc3F)nc(C)n12 (stereo not drawn) [Example 70, N-(4-(8-amino-3,5-dimethylimidazo [1,5-a]pyrazin-1-yl)-3-fluorophenyl)-2-(3-fluorophenyl)-2-hydroxy-acetamide]",pIC50,[1],7.60 to 9.00
same,pIC50,[2],7.60 to 9.00
"Cc1cnc(N)c2c(-c3ccc(NC(=O)C(O)c4cccc(F)c4)cc3F)nc(C)n12 (stereo not drawn) [Example 71, N-(4-(8-amino-3,5-dimethylimidazo [1,5-a]pyrazin-1-yl)-3-fluorophenyl)-2-(3-fluorophenyl)-2-hydroxy-acetamide]",pIC50,[1],7.60 to 9.00
same,pIC50,[2],7.00 to 7.29
"[2H]C([2H])([2H])c1nc(-c2ccc(NC(=O)C(O)c3cccc(F)c3)cc2F)c2c(N)ncc(C)n12 (stereo not drawn) [Example 72, N-[4-[8-amino-5-methyl-3-(trideuteriomethyl)imidazo[1,5-a]pyrazin-1-yl]-3-fluoro-phenyl]-2-(3-fluorophenyl)-2-hydroxy-acetamide]",pIC50,[1],7.60 to 9.00
same,pIC50,[2]; 2 h,7.60 to 9.00
"[2H]C([2H])([2H])c1nc(-c2ccc(NC(=O)C(O)c3cccc(F)c3)cc2F)c2c(N)ncc(Cl)n12 (stereo not drawn) [Example 74, N-[4-[8-amino-5-chloro-3-(trideuteriomethyl)imidazo[1,5-a]pyrazin-1-yl]-3-fluoro-phenyl]-2-(3-fluorophenyl)-2-hydroxy-acetamide]",pIC50,[1],7.60 to 9.00
same,pIC50,[2],7.60 to 9.00
"[2H]C([2H])([2H])c1nc(-c2ccc(NC(=O)C(O)c3cccc(F)c3)cc2F)c2c(N)ncc(Cl)n12 (stereo not drawn) [Example 75, N-[4-[8-amino-5-chloro-3-(trideuteriomethyl)imidazo[1,5-a]pyrazin-1-yl]-3-fluoro-phenyl]-2-(3-fluorophenyl)-2-hydroxy-acetamide]",pIC50,[1],7.60 to 9.00
same,pIC50,[2],7.30 to 7.59
"[2H]C([2H])([2H])c1nc(-c2ccc(NC(=O)C(O)c3cccc(F)c3)cc2F)c2c(N)ncc(C(F)(F)F)n12 (stereo not drawn) [Example 76, N-[4-[8-amino-3-(trideuteriomethyl)-5-(trifluoromethyl)imidazo[1,5-a]pyrazin-1-yl]-3-fluoro-phenyl]-2-(3-fluorophenyl)-2-hydroxy-acetamide]",pIC50,[1],7.60 to 9.00
same,pIC50,[2],7.60 to 9.00
"[2H]C([2H])([2H])c1nc(-c2ccc(NC(=O)C(O)c3cccc(F)c3)cc2F)c2c(N)ncc(C(F)(F)F)n12 (stereo not drawn) [Example 77, N-[4-[8-amino-3-(trideuteriomethyl)-5-(trifluoromethyl)imidazo[1,5-a]pyrazin-1-yl]-3-fluoro-phenyl]-2-(3-fluorophenyl)-2-hydroxy-acetamide]",pIC50,[1],7.60 to 9.00
same,pIC50,[2],7.00 to 7.29
"Cc1cnc(N)c2c(-c3ccc(NC(=O)C(O)c4cccc(Cl)c4)cc3F)nc(C)n12 (stereo not drawn) [Example 78, N-(4-(8-amino-3,5-dimethylimidazo [1,5-a]pyrazin-1-yl)-3-fluorophenyl)-2-(3-chlorophenyl)-2-hydroxy-acetamide]",pIC50,[1],7.60 to 9.00
same,pIC50,[2]; 2 h,7.60 to 9.00
"[2H]C([2H])([2H])c1nc(-c2ccc(NC(=O)C(O)c3cccc(Cl)c3)cc2F)c2c(N)nc(C)cn12 (stereo not drawn) [Example 80, N-[4-[8-amino-6-methyl-3-(trideuteriomethyl)imidazo[1,5-a]pyrazin-1-yl]-3-fluoro-phenyl]-2-(3-chlorophenyl)-2-hydroxy-acetamide]",pIC50,[1],7.60 to 9.00
same,pIC50,[2],7.60 to 9.00
"[2H]C([2H])([2H])c1nc(-c2ccc(NC(=O)C(O)c3cccc(Cl)c3)cc2F)c2c(N)nc(C)cn12 (stereo not drawn) [Example 81, N-[4-[8-amino-6-methyl-3-(trideuteriomethyl)imidazo[1,5-a]pyrazin-1-yl]-3-fluoro-phenyl]-2-(3-chlorophenyl)-2-hydroxy-acetamide]",pIC50,[1],7.60 to 9.00
same,pIC50,[2],6.60 to 7.00
"[2H]C([2H])([2H])c1nc(-c2ccc(NC(=O)C(O)c3cccc(Cl)c3)cc2F)c2c(N)ncc(C(F)(F)F)n12 (stereo not drawn) [Example 82, N-[4-[8-amino-3-(trideuteriomethyl)-5-(trifluoromethyl)imidazo[1,5-a]pyrazin-1-yl]-3-fluoro-phenyl]-2-(3-chlorophenyl)-2-hydroxy-acetamide]",pIC50,[1],7.60 to 9.00
same,pIC50,[2],7.60 to 9.00
"[2H]C([2H])([2H])c1nc(-c2ccc(NC(=O)C(O)c3cccc(Cl)c3)cc2F)c2c(N)ncc(C(F)(F)F)n12 (stereo not drawn) [Example 83, N-[4-[8-amino-3-(trideuteriomethyl)-5-(trifluoromethyl)imidazo[1,5-a]pyrazin-1-yl]-3-fluoro-phenyl]-2-(3-chlorophenyl)-2-hydroxy-acetamide]",pIC50,[1],7.60 to 9.00
same,pIC50,[2],7.00 to 7.29
"[2H]C([2H])([2H])c1nc(-c2ccc(NC(=O)C(O)c3cccc(Cl)c3)cc2F)c2c(N)ncc(C)n12 (stereo not drawn) [Example 84, N-[4-[8-amino-5-methyl-3-(trideuteriomethyl)imidazo[1,5-a]pyrazin-1-yl]-3-fluoro-phenyl]-2-(3-chlorophenyl)-2-hydroxy-acetamide]",pIC50,[1],7.60 to 9.00
same,pIC50,[2],7.60 to 9.00
"[2H]C([2H])([2H])c1nc(-c2ccc(NC(=O)C(O)c3cccc(Cl)c3)cc2F)c2c(N)ncc(C)n12 (stereo not drawn) [Example 85, N-[4-[8-amino-5-methyl-3-(trideuteriomethyl)imidazo[1,5-a]pyrazin-1-yl]-3-fluoro-phenyl]-2-(3-chlorophenyl)-2-hydroxy-acetamide]",pIC50,[1],7.60 to 9.00
same,pIC50,[2],7.00 to 7.29
"Cc1cccc(C(O)C(=O)Nc2ccc(-c3nc(C)n4c(C)cnc(N)c34)c(F)c2)c1 (stereo not drawn) [Example 88, N-(4-(8-amino-3,5-dimethylimidazo [1,5-a]pyrazin-1-yl)-3-fluoro-phenyl)-2-hydroxy-2-(m-tolyl)acetamide]",pIC50,[1],7.60 to 9.00
same,pIC50,[2],7.60 to 9.00
"Cc1cccc(C(O)C(=O)Nc2ccc(-c3nc(C)n4c(C)cnc(N)c34)c(F)c2)c1 (stereo not drawn) [Example 89, N-(4-(8-amino-3,5-dimethylimidazo [1,5-a]pyrazin-1-yl)-3-fluoro-phenyl)-2-hydroxy-2-(m-tolyl)acetamide]",pIC50,[1],7.60 to 9.00
same,pIC50,[2],7.00 to 7.29
"[2H]C([2H])([2H])c1nc(-c2ccc(NC(=O)C(O)c3cccc(C)c3)cc2F)c2c(N)ncc(C)n12 (stereo not drawn) [Example 90, N-[4-[8-amino-5-methyl-3-(trideuteriomethyl)imidazo[1,5-a]pyrazin-1-yl]-3-fluoro-phenyl]-2-hydroxy-2-(m-tolyl)acetamide]",pIC50,[1],7.60 to 9.00
same,pIC50,[2]; 2 h,7.30 to 7.59
"[2H]C([2H])([2H])c1nc(-c2ccc(NC(=O)C(O)c3cccc(C)c3)cc2F)c2c(N)ncc(C)n12 (stereo not drawn) [Example 91, N-[4-[8-amino-5-methyl-3-(trideuteriomethyl)imidazo[1,5-a]pyrazin-1-yl]-3-fluoro-phenyl]-2-hydroxy-2-(m-tolyl)acetamide]",pIC50,[1],7.60 to 9.00
same,pIC50,[2],7.00 to 7.29
"Cc1cnc(N)c2c(-c3ccc(NC(=O)C(O)c4cccc(C(F)(F)F)c4)cc3F)nc(C)n12 (stereo not drawn) [Example 92, N-(4-(8-amino-3,5-dimethylimidazo [1,5-a]pyrazin-1-yl)-3-fluoro-phenyl)-2-hydroxy-2-(3-(trifluoromethyl)phenyl)acetamide]",pIC50,[1],7.60 to 9.00
same,pIC50,[2],7.60 to 9.00
